Assay results as given in patent US20230212222A1 (ANYGEN CO., LTD., priority 2020, published 2023).
Where two headings read alike, the source gives them in different places. Square brackets hold non-standard residues; d marks the D form. Peptide text beside a SMILES is read from it. * marks the point of attachment. Tyr(3,5-(NO2)2) = N[C@@H](Cc1cc([N+](=O)[O-])c(O)c([N+](=O)[O-])c1)C(=O)O; His(Trt) = N[C@@H](Cc1cn(C(c2ccccc2)(c2ccccc2)c2ccccc2)cn1)C(=O)O; dHis(Trt) = N[C@H](Cc1cn(C(c2ccccc2)(c2ccccc2)c2ccccc2)cn1)C(=O)O; His(τ-CHPh2) = N[C@@H](Cc1cn(C(c2ccccc2)c2ccccc2)cn1)C(=O)O; sY = N[C@@H](Cc1ccc(OS(=O)(=O)O)cc1)C(=O)O; Tyr(3-NH2) = Nc1cc(C[C@H](N)C(=O)O)ccc1O; dPhe(4-Me) = Cc1ccc(C[C@@H](N)C(=O)O)cc1; Dmt = Cc1cc(O)cc(C)c1C[C@H](N)C(=O)O; Myristoyl = CCCCCCCCCCCCCC(=O)*; d3Pal = N[C@H](Cc1cccnc1)C(=O)O; Octanoyl = CCCCCCCC(=O)*; Orn = NCCC[C@H](N)C(=O)O

Key:
GPR39 [1] = target: T1, GPR39 (Homo sapiens, UniProt O43194); test: luciferase assay system (SRE luciferase reporter gene) for GPR39 in CV-1 cells; conditions: for ECmax (-fold induction over basal): CV-1 cells; for activity level for GPR39 (in words): comment on Table 3
T1 sequence (O43194 1-453): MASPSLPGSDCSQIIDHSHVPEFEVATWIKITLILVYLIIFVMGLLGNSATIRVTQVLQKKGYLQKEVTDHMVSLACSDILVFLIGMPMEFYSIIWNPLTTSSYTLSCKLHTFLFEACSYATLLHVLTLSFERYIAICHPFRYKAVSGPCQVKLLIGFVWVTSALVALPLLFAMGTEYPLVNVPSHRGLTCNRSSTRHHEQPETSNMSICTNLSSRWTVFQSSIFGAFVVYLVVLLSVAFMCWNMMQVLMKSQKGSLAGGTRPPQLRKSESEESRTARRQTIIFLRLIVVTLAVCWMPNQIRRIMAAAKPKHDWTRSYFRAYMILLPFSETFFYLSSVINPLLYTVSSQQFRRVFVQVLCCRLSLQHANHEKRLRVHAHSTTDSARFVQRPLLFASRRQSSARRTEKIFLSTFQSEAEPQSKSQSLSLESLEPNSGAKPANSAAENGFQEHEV
Experimental: (§1) Specifically, the fibroblast cell line CV-1 (1×10^5 cells/ml, Korea Cell Line Bank) was cultured in a 96 well cell culture plate for 24 hours, and then treated with GPR39 inserted into adenovirus and SRE (serum response element) luciferase at 50 MOI (multiplicity of infection) and 25 MOI virus for 3 hours, respectively, and then cultured for 24 hours.

GPR39 [2] = target: T1, GPR39
Experimental: as §1

[3] = EC50, CV-1 cells, GPR39 and SRE luciferase adenovirus, treated 6 hours, luminometer
[4] = GPR39 and SRE luciferase adenovirus, treated 6 hours, luminometer

| SMILES | EC50 (GPR39 [1]; [3]) | ECmax (-fold induction over basal) (GPR39 [2]) | EC50 (GPR39 [1]) | ECmax (-fold induction over basal) (GPR39 [1]; [4]) | activity level for GPR39 (in words) (GPR39 [1]) |
| --- | --- | --- | --- | --- | --- |
| CCCCCCCC(=O)NCCCC[C@H](NC(=O)[C@@H](N)Cc1cn(C(c2ccccc2)c2ccccc2)cn1)C(=O)N[C@H](Cc1ccc(C)cc1)C(=O)N[C@@H](Cc1ccc(O)c(N)c1)C(=O)O [HKFY-70, (S)-2-((R)-2-((S)-2-((S)-2-amino-3-(1-benzhydryl-1H-imidazol-4-yl)propanamido)-6-octanamidohexanamido)-3-(p-tolyl)propanamido)-3-(3-amino-4-hydroxyphenyl)propanoic acid] (H-[His(τ-CHPh2)]K(Octanoyl)[dPhe(4-Me)][Tyr(3-NH2)]-OH) | 20 ± 1 nM | 10.1 ± 1.6 -fold induction over basal | – | – | – |
| CCCCCCCC(=O)NCCC[C@H](NC(=O)[C@@H](N)Cc1cn(C(c2ccccc2)c2ccccc2)cn1)C(=O)N[C@H](Cc1ccc(C)cc1)C(=O)N[C@@H](Cc1ccc(O)cc1)C(=O)O [HKFY-71, ((R)-2-((S)-2-((S)-2-amino-3-(1-benzhydryl-1H-imidazol-4-yl)propanamido)-5-octanamidopentanamido)-3-(p-tolyl)propanoyl)-L-tyrosine] (H-[His(τ-CHPh2)][Orn](Octanoyl)[dPhe(4-Me)]Y-OH) | 12 ± 3 nM | 16.4 ± 2.51 -fold induction over basal | – | – | – |
| CCCCCCCCCCCCCC(=O)NCCCC[C@H](NC(=O)[C@@H](N)Cc1cn(C(c2ccccc2)(c2ccccc2)c2ccccc2)cn1)C(=O)N[C@@H](Cc1ccccc1)C(=O)N[C@@H](Cc1ccc(O)cc1)C(=O)O [HKFY-26, N6-tetradecanoyl-N2-(Nt-trityl-L-histidyl)-L-lysyl-L-phenylalanyl-L-tyrosine] (H-[His(Trt)]K(Myristoyl)FY-OH) | 280 ± 20 nM | 19.82 ± 0.57 -fold induction over basal | – | – | – |
| CCCCCCCC(=O)NCCCC[C@H](NC(=O)[C@H](N)Cc1cn(C(c2ccccc2)(c2ccccc2)c2ccccc2)cn1)C(=O)N[C@H](Cc1ccc(C)cc1)C(=O)N[C@@H](Cc1ccc(O)cc1)C(=O)O [HKFY-31, ((R)-2-((S)-2-((R)-2-amino-3-(1-trityl-1H-imidazol-4-yl)propanamido)-6-octanamidohexanamido)-3-(p-tolyl)propanoyl)-L-tyrosine] (H-[dHis(Trt)]K(Octanoyl)[dPhe(4-Me)]Y-OH) | 20 ± 3 nM | 20.9 ± 2.51 -fold induction over basal | – | – | – |
| CCCCCCCC(=O)NCCCC[C@H](NC(=O)[C@@H](N)Cc1cn(C(c2ccccc2)c2ccccc2)cn1)C(=O)N[C@H](Cc1ccc(C)cc1)C(=O)N[C@@H](Cc1c(C)cc(O)cc1C)C(=O)O [HKFY-36, (S)-2-((R)-2-((S)-2-((S)-2-amino-3-(1-benzhydryl-1H-imidazol-4-yl)propanamido)-6-octanamidohexanamido)-3-(p-tolyl)propanamido)-3-(4-hydroxy-2,6-dimethylphenyl)propanoic acid] (H-[His(τ-CHPh2)]K(Octanoyl)[dPhe(4-Me)][Dmt]-OH) | – | – | 150 ± 50 nM | 9.9 ± 0.28 -fold induction over basal | – |
| CCCCCCCC(=O)NCCCC[C@H](NC(=O)[C@@H](N)Cc1cn(-c2ccccc2)cn1)C(=O)N[C@H](Cc1ccc(C)cc1)C(=O)N[C@@H](Cc1ccc(O)cc1)C(=O)O [HKFY-58, ((R)-2-((S)-2-((S)-2-amino-3-(1-phenyl-1H-imidazol-4-yl)propanamido)-6-octanamidohexanamido)-3-(p-tolyl)propanoyl)-L-tyrosine] | 20 ± 2 nM | 9.12 ± 2.1 -fold induction over basal | – | – | – |
| CCCCCCCC(=O)NCCCC[C@H](NC(=O)[C@@H](N)Cc1cn(C(c2ccccc2)(c2ccccc2)c2ccccc2)cn1)C(=O)N[C@@H](Cc1ccccc1)C(=O)N[C@@H](Cc1ccc(O)cc1)C(=O)O [HKFY-1, N6-octanoyl-N2-(Nt-trityl-L-histidyl)-L-lysyl-L-phenylalanyl-L-tyrosine] (H-[His(Trt)]K(Octanoyl)FY-OH) | 150 ± 10 nM | 20.51 ± 0.57 -fold induction over basal | – | – | – |
| CCCCCCCC(=O)NCCCC[C@H](NC(=O)[C@@H](N)Cc1cn(C(c2ccccc2)(c2ccccc2)c2ccccc2)cn1)C(=O)N[C@H](Cc1cccnc1)C(=O)N[C@@H](Cc1ccc(O)cc1)C(=O)O [HKFY-73, ((R)-2-((S)-2-((S)-2-amino-3-(1-trityl-1H-imidazol-4-yl)propanamido)-6-octanamidohexanamido)-3-(pyridin-3-yl)propanoyl)-L-tyrosine] (H-[His(Trt)]K(Octanoyl)[d3Pal]Y-OH) | 23 ± 1 nM | 11.6 ± 2.3 -fold induction over basal | – | – | – |
| CCCCCCCC(=O)NCCCC[C@H](NC(=O)[C@@H](N)Cc1cn(-c2ccc(C(C)(C)C)cc2)cn1)C(=O)N[C@H](Cc1ccc(C)cc1)C(=O)N[C@@H](Cc1ccc(O)cc1)C(=O)O [HKFY-61, ((R)-2-((S)-2-((S)-2-amino-3-(1-(4-(tert-butyl)phenyl)-1H-imidazol-4-yl)propanamido)-6-octanamidohexanamido)-3-(p-tolyl)propanoyl)-L-tyrosine] | 20 ± 3 nM | 9.88 ± 1.8 -fold induction over basal | – | – | – |
| CCCCCCCC(=O)NCCCC[C@H](NC(=O)[C@@H](N)Cc1cn(C(c2ccccc2)c2ccccc2)cn1)C(=O)N[C@H](Cc1ccc(C)cc1)C(=O)N[C@@H](Cc1ccc(OS(=O)(=O)O)cc1)C(=O)O [HKFY-35, (S)-2-((R)-2-((S)-2-((S)-2-amino-3-(1-benzhydryl-1H-imidazol-4-yl)propanamido)-6-octanamidohexanamido)-3-(p-tolyl)propanamido)-3-(4-(sulfooxy)phenyl)propanoic acid] (H-[His(τ-CHPh2)]K(Octanoyl)[dPhe(4-Me)][sY]-OH) | 280 ± 70 nM | 18.9 ± 0.41 -fold induction over basal | – | – | – |
| CCCCCCCC(=O)NCCCC[C@H](NC(=O)[C@@H](N)Cc1c[n+](CCCC2CCCCC2)cn1CCCC1CCCCC1)C(=O)N[C@@H](Cc1ccccc1)C(=O)N[C@@H](Cc1ccc(O)cc1)C(=O)O | – | – | 33700 ± 1300 nM | 17.3 ± 1.22 -fold induction over basal | – |
| CCCCCCCC(=O)NCCCC[C@H](NC(=O)[C@@H](N)Cc1cn(C(c2ccccc2)c2ccc(O)cc2)cn1)C(=O)N[C@H](Cc1ccc(C)cc1)C(=O)N[C@@H](Cc1ccc(O)cc1)C(=O)O (stereo partly drawn) [HKFY-65, ((2R)-2-((2S)-2-((2S)-2-amino-3-(1-((4-hydroxyphenyl)(phenyl)methyl)-1H-imidazol-4-yl)propanamido)-6-octanamidohexanamido)-3-(p-tolyl)propanoyl)-L-tyrosine] | – | 18.3 ± 2.2 -fold induction over basal | – | – | higher activity level than other HJKFY derivatives |
| CCCCCCCC(=O)NCCCC[C@H](NC(=O)[C@@H](N)Cc1c[nH]c(-c2cccs2)n1)C(=O)N[C@H](Cc1ccc(C)cc1)C(=O)N[C@@H](Cc1ccc(O)cc1)C(=O)O [HKFY-63, ((R)-2-((S)-2-((S)-2-amino-3-(2-(thiophen-2-yl)-1H-imidazol-4-yl)propanamido)-6-octanamidohexanamido)-3-(p-tolyl)propanoyl)-L-tyrosine] | – | 13.5 ± 1.8 -fold induction over basal | – | – | higher activity level than other HJKFY derivatives |
| CCCCCCCC(=O)NCCCC[C@H](NC(=O)[C@@H](N)Cc1cn(C(c2ccccc2)(c2ccccc2)c2ccccc2)cn1)C(=O)N[C@@H](Cc1ccccc1)C(=O)N[C@@H](Cc1ccc(O)cc1)C(=O)N[C@@H](CO)C(=O)N[C@@H](CCC(N)=O)C(=O)N[C@@H](CC(=O)O)C(=O)NCC(=O)N[C@@H](C)C(=O)N[C@@H](CCCNC(=N)N)C(=O)N[C@@H](Cc1ccccc1)C(N)=O [HKFY-41, (3S,6S,9S,12S,15S,18S)-3-((2-(((S)-1-(((S)-1-(((S)-1-amino-1-oxo-3-phenylpropan-2-yl)amino)-5-guanidino-1-oxopentan-2-yl)amino)-1-oxopropan-2-yl)amino)-2-oxoethyl)carbamoyl)-18-((S)-2-amino-3-(1-trityl-1H-imidazol-4-yl)propanamido)-6-(3-amino-3-oxopropyl)-15-benzyl-12-(4-hydroxybenzyl)-9-(hydroxymethyl)-5,8,11,14,17,24-hexaoxo-4,7,10,13,16,23-hexaazahentriacontanoic acid] (H-[His(Trt)]K(Octanoyl)FYSQDGARF-NH2) | – | – | – | 12.2 ± 0.02 -fold induction over basal | – |
| CCCCCCCC(=O)NCCCC[C@H](NC(=O)[C@@H](N)Cc1cncn1CCCC1CCCCC1)C(=O)N[C@@H](Cc1ccccc1)C(=O)N[C@@H](Cc1ccc(O)cc1)C(=O)O | – | – | – | 16 ± 2.2 -fold induction over basal | – |
| CCCCCCCC(=O)NCCCC[C@H](NC(=O)[C@@H](N)Cc1c[n+](CCCc2ccccc2)cn1CCCc1ccccc1)C(=O)N[C@@H](Cc1ccccc1)C(=O)N[C@@H](Cc1ccc(O)cc1)C(=O)O | – | – | – | 15 ± 2.12 -fold induction over basal | – |
| CCCCCCCC(=O)NCCCC[C@H](NC(=O)[C@@H](N)Cc1cn(C(c2ccccc2)c2ccccc2)cn1)C(=O)N[C@H](Cc1ccc(C)cc1)C(=O)N[C@@H](Cc1cc([N+](=O)[O-])c(O)c([N+](=O)[O-])c1)C(=O)O [HKFY-69, (S)-2-((R)-2-((S)-2-((S)-2-amino-3-(1-benzhydryl-1H-imidazol-4-yl)propanamido)-6-octanamidohexanamido)-3-(p-tolyl)propanamido)-3-(4-hydroxy-3,5-dinitrophenyl)propanoic acid] (H-[His(τ-CHPh2)]K(Octanoyl)[dPhe(4-Me)][Tyr(3,5-(NO2)2)]-OH) | – | – | – | 12.2 ± 2.5 -fold induction over basal | – |
